Assay results from US10004701B2, “Methods and compositions for treating infection” (UNIVERSITY OF ROCHESTER, priority 2012, dated 2018).
Where a name gives a salt, the structure may show the parent alone. Read-outs that look alike come from different tables or passages of the source.

Legend:
Test in all cases: AK assay 384-well format, Prestwick library screening
E. faecium = format: cell-based, Enterococcus faecium; settings: 50 μM final drug concentration; for fold induction at 50 µM: Enterococcus faecium, 3 h
[1] = test system: S. aureus strain USA300-0114; format: cell-based, Staphylococcus aureus; settings: 50 μM final drug concentration; for fold induction at 50 µM: Staphylococcus aureus, USA300, 3 h
K. pneumoniae = format: cell-based, Klebsiella pneumoniae; settings: 50 μM final drug concentration; for fold induction at 50 µM: Klebsiella pneumoniae, 3 h
[2] = test system: A. baumannii strain 98-37-09; format: cell-based, Acinetobacter baumannii; settings: 50 μM final drug concentration; for fold induction at 50 µM: Acinetobacter baumannii, 983709, 3 h
P. aeruginosa = format: cell-based, Pseudomonas aeruginosa; settings: 50 μM final drug concentration; for fold induction at 50 µM: Pseudomonas aeruginosa, 3 h
E. cloacae = format: cell-based, Enterobacter cloacae; settings: 50 μM final drug concentration; for fold induction at 50 µM: Enterobacter cloacae, 3 h
E. coli = format: cell-based, Escherichia coli; settings: 50 μM final drug concentration; for fold induction at 50 µM: Escherichia coli, 3 h
[3] = planktonic E. faecium, 384-well, cutoff for positive-scoring molecules 3-fold increase, read-out: AK-based Prestwick Library Screening Results: E. faecium (increase in extracellular AK activity)
[4] = planktonic S. aureus, 384-well, cutoff for positive-scoring molecules 3-fold increase, read-out: AK-based Prestwick Library Screening Results: S. aureus (increase in extracellular AK activity)
[5] = planktonic K. pneumoniae, 384-well, cutoff for positive-scoring molecules 3-fold increase, read-out: AK-based Prestwick Library Screening Results: K. pneumoniae (increase in extracellular AK activity)
[6] = planktonic A. baumannii, 384-well, cutoff for positive-scoring molecules 3-fold increase, read-out: AK-based Prestwick Library Screening Results: A. baumannii (increase in extracellular AK activity)
[7] = planktonic P. aeruginosa, 384-well, cutoff for positive-scoring molecules 3-fold increase, read-out: AK-based Prestwick Library Screening Results: P. aeruginosa (increase in extracellular AK activity)
[8] = planktonic E. cloacae, 384-well, cutoff for positive-scoring molecules 3-fold increase, read-out: AK-based Prestwick Library Screening Results: E. cloacae (increase in extracellular AK activity)
[9] = planktonic E. coli, 384-well, cutoff for positive-scoring molecules 3-fold increase, read-out: AK-based Prestwick Library Screening Results: E. coli (increase in extracellular AK activity)
[10] = planktonic E. faecium, positive cutoff 3-fold increase, read-out: AK-based Prestwick library screening result, E. faecium (fold increase in extracellular AK activity)
[11] = planktonic S. aureus, positive cutoff 3-fold increase, read-out: AK-based Prestwick library screening result, S. aureus (fold increase in extracellular AK activity)
[12] = planktonic K. pneumoniae, positive cutoff 3-fold increase, read-out: AK-based Prestwick library screening result, K. pneumoniae (fold increase in extracellular AK activity)
[13] = planktonic A. baumannii, positive cutoff 3-fold increase, read-out: AK-based Prestwick library screening result, A. baumannii (fold increase in extracellular AK activity)
[14] = planktonic P. aeruginosa, positive cutoff 3-fold increase, read-out: AK-based Prestwick library screening result, P. aeruginosa (fold increase in extracellular AK activity)
[15] = planktonic E. cloacae, positive cutoff 3-fold increase, read-out: AK-based Prestwick library screening result, E. cloacae (fold increase in extracellular AK activity)
[16] = planktonic E. coli, positive cutoff 3-fold increase, read-out: AK-based Prestwick library screening result, E. coli (fold increase in extracellular AK activity)
[17] = 384-well format, cutoff for positive-scoring molecules 3-fold increase, read-out: AK-based Prestwick Library Screening Results, E. faecium (increase in extracellular AK activity)
[18] = 384-well format, cutoff for positive-scoring molecules 3-fold increase, read-out: AK-based Prestwick Library Screening Results, S. aureus (increase in extracellular AK activity)
[19] = 384-well format, cutoff for positive-scoring molecules 3-fold increase, read-out: AK-based Prestwick Library Screening Results, K. pneumoniae (increase in extracellular AK activity)
[20] = 384-well format, cutoff for positive-scoring molecules 3-fold increase, read-out: AK-based Prestwick Library Screening Results, A. baumannii (increase in extracellular AK activity)
[21] = 384-well format, cutoff for positive-scoring molecules 3-fold increase, read-out: AK-based Prestwick Library Screening Results, P. aeruginosa (increase in extracellular AK activity)
[22] = 384-well format, cutoff for positive-scoring molecules 3-fold increase, read-out: AK-based Prestwick Library Screening Results, E. cloacae (increase in extracellular AK activity)
[23] = 384-well format, cutoff for positive-scoring molecules 3-fold increase, read-out: AK-based Prestwick Library Screening Results, E. coli (increase in extracellular AK activity)

With `Cc1cccc(N(C)C(=S)Oc2ccc3ccccc3c2)c1` [Tolnaftate] the fold induction at 50 µM (E. faecium; [3]) was 1, the fold induction at 50 µM [1, 4] was 1.3 and the fold induction at 50 µM (K. pneumoniae; [5]) was 0.9. For the same molecule, the fold induction at 50 µM [2, 6] was 1.5, the fold induction at 50 µM (P. aeruginosa; [7]) was 1 and the fold induction at 50 µM (E. cloacae; [8]) was 1.2. For the same molecule, the fold induction at 50 µM (E. coli; [9]) was 1.1.
Work on `C[C@H]1CC[C@]2(NC1)O[C@H]1C[C@H]3[C@@H]4CC[C@H]5C[C@@H](O)CC[C@]5(C)[C@H]4CC[C@]3(C)[C@H]1[C@@H]2C` [Tomatidine] yielded a fold induction at 50 µM (E. faecium; planktonic E. faecium, […], read-out: AK-based Prestwick Library Screening Results, E. faecium (increase in extracellular AK activity)) of 1.2, a fold induction at 50 µM ([1]; planktonic S. aureus, […], read-out: AK-based Prestwick Library Screening Results, S. aureus (increase in extracellular AK activity)) of 0.5 and a fold induction at 50 µM (K. pneumoniae; planktonic K. pneumoniae, […], read-out: AK-based Prestwick Library Screening Results, K. pneumoniae (increase in extracellular AK activity)) of 0.6. The fold induction at 50 µM ([2]; planktonic A. baumannii, […], read-out: AK-based Prestwick Library Screening Results, A. baumannii (increase in extracellular AK activity)) was 0.7, the fold induction at 50 µM (P. aeruginosa; planktonic P. aeruginosa, […], read-out: AK-based Prestwick Library Screening Results, P. aeruginosa (increase in extracellular AK activity)) was 0.7 and the fold induction at 50 µM (E. cloacae; planktonic E. cloacae, […], read-out: AK-based Prestwick Library Screening Results, E. cloacae (increase in extracellular AK activity)) was 1. For the same molecule, the fold induction at 50 µM (E. coli; planktonic E. coli, […], read-out: AK-based Prestwick Library Screening Results, E. coli (increase in extracellular AK activity)) was 0.7.
For `C[C@H]1CC[C@]2(NC1)O[C@H]1C[C@H]3[C@@H]4CC[C@H]5C[C@@H](O[C@@H]6O[C@H](CO)[C@H](O[C@@H]7O[C@H](CO)[C@@H](O)[C@H](O[C@@H]8OC[C@@H](O)[C@H](O)[C@H]8O)[C@H]7O[C@@H]7O[C@H](CO)[C@@H](O)[C@H](O)[C@H]7O)[C@H](O)[C@H]6O)CC[C@]5(C)[C@H]4CC[C@]3(C)[C@H]1[C@@H]2C` [Tomatine], the fold induction at 50 µM (E. faecium; 384-well format, […], read-out: AK-based Prestwick Library Screening Results, E. faecium (increase in extracellular AK activity)) was 1, the fold induction at 50 µM ([1]; 384-well format, […], read-out: AK-based Prestwick Library Screening Results, S. aureus (increase in extracellular AK activity)) was 0.8 and the fold induction at 50 µM (K. pneumoniae; 384-well format, […], read-out: AK-based Prestwick Library Screening Results, K. pneumoniae (increase in extracellular AK activity)) was 0.7. The fold induction at 50 µM ([2]; 384-well format, […], read-out: AK-based Prestwick Library Screening Results, A. baumannii (increase in extracellular AK activity)) was 1, the fold induction at 50 µM (P. aeruginosa; 384-well format, […], read-out: AK-based Prestwick Library Screening Results, P. aeruginosa (increase in extracellular AK activity)) was 0.8 and the fold induction at 50 µM (E. cloacae; 384-well format, […], read-out: AK-based Prestwick Library Screening Results, E. cloacae (increase in extracellular AK activity)) was 1.1. For the same molecule, the fold induction at 50 µM (E. coli; 384-well format, […], read-out: AK-based Prestwick Library Screening Results, E. coli (increase in extracellular AK activity)) was 0.9.
`Cc1cccc(Nc2ccncc2S(=O)(=O)NC(=O)NC(C)C)c1` [Torsemide] was tested, and the fold induction at 50 µM (E. faecium; [10]) was 1, the fold induction at 50 µM [1, 11] was 1.5 and the fold induction at 50 µM (K. pneumoniae; [12]) was 1.3. The fold induction at 50 µM [2, 13] was 1.6, the fold induction at 50 µM (P. aeruginosa; [14]) was 1.1 and the fold induction at 50 µM (E. cloacae; [15]) was 1.4. It also gave a fold induction at 50 µM (E. coli; [16]) of 1.1.
`CCCCNc1c(C(=O)OCC)c(C)nc2c1cnn2CC` [Tracazolate hydrochloride] was tested, and the fold induction at 50 µM (E. faecium; [10]) was 1.1, the fold induction at 50 µM [1, 11] was 0.5 and the fold induction at 50 µM (K. pneumoniae; [12]) was 0.6. It also gave a fold induction at 50 µM [2, 13] of 0.8, a fold induction at 50 µM (P. aeruginosa; [14]) of 0.6 and a fold induction at 50 µM (E. cloacae; [15]) of 0.7. The fold induction at 50 µM (E. coli; [16]) was 0.5.
For `NC[C@H]1CC[C@H](C(=O)O)CC1` [Tranexamic acid], the fold induction at 50 µM (E. faecium; [17]) was 1.1, the fold induction at 50 µM [1, 18] was 0.7 and the fold induction at 50 µM (K. pneumoniae; [19]) was 0.7. The fold induction at 50 µM [2, 20] was 0.8, the fold induction at 50 µM (P. aeruginosa; [21]) was 0.9 and the fold induction at 50 µM (E. cloacae; [22]) was 0.9. For the same molecule, the fold induction at 50 µM (E. coli; [23]) was 0.8.
In the case of `N[C@@H]1C[C@H]1c1ccccc1` [Tranylcypromine hydrochloride], the fold induction at 50 µM (E. faecium; [17]) is reported as 1, the fold induction at 50 µM [1, 18] is reported as 0.8 and the fold induction at 50 µM (K. pneumoniae; [19]) is reported as 0.6. For the same molecule, the fold induction at 50 µM [2, 20] was 0.9, the fold induction at 50 µM (P. aeruginosa; [21]) was 0.8 and the fold induction at 50 µM (E. cloacae; [22]) was 0.9. For the same molecule, the fold induction at 50 µM (E. coli; [23]) was 0.8.
For `O=c1n(CCCN2CCN(c3cccc(Cl)c3)CC2)nc2ccccn12` [Trazodone hydrochloride], the fold induction at 50 µM (E. faecium; [3]) was 1, the fold induction at 50 µM [1, 4] was 0.9 and the fold induction at 50 µM (K. pneumoniae; [5]) was 1. The fold induction at 50 µM [2, 6] was 1, the fold induction at 50 µM (P. aeruginosa; [7]) was 1.2 and the fold induction at 50 µM (E. cloacae; [8]) was 1.3. The fold induction at 50 µM (E. coli; [9]) was 0.9.
For `C(#CCN1CCCC1)CN1CCCC1.Cl.Cl` [Tremorine dihydrochloride], the “AK-based Prestwick Library Screening Results, E. faecium (increase in extracellular AK activity)” value (E. faecium; planktonic E. faecium, […]) was 1.0, the “AK-based Prestwick Library Screening Results, S. aureus (increase in extracellular AK activity)” value ([1]; planktonic S. aureus, […]) was 0.5 and the “AK-based Prestwick Library Screening Results, K. pneumoniae (increase in extracellular AK activity)” value (K. pneumoniae; planktonic K. pneumoniae, […]) was 0.6. For the same molecule, the “AK-based Prestwick Library Screening Results, A. baumannii (increase in extracellular AK activity)” value ([2]; planktonic A. baumannii, […]) was 0.7, the “AK-based Prestwick Library Screening Results, P. aeruginosa (increase in extracellular AK activity)” value (P. aeruginosa; planktonic P. aeruginosa, […]) was 0.6 and the “AK-based Prestwick Library Screening Results, E. cloacae (increase in extracellular AK activity)” value (E. cloacae; planktonic E. cloacae, […]) was 0.7. The “AK-based Prestwick Library Screening Results, E. coli (increase in extracellular AK activity)” value (E. coli; planktonic E. coli, […]) was 0.7.
In the case of `C[C@]12C=CC(=O)C=C1CC[C@H]1[C@@H]3C[C@@H](O)[C@](O)(C(=O)CO)[C@@]3(C)C[C@H](O)[C@@]12F` [Triamcinolone], the fold induction at 50 µM (E. faecium; [17]) is reported as 1, the fold induction at 50 µM [1, 18] is reported as 0.8 and the fold induction at 50 µM (K. pneumoniae; [19]) is reported as 0.7. The fold induction at 50 µM [2, 20] was 0.9, the fold induction at 50 µM (P. aeruginosa; [21]) was 0.7 and the fold induction at 50 µM (E. cloacae; [22]) was 1.2. It also gave a fold induction at 50 µM (E. coli; [23]) of 1.
For `Nc1nc(N)c2nc(-c3ccccc3)c(N)nc2n1` [Triamterene], the fold induction at 50 µM (E. faecium; [17]) was 0.7, the fold induction at 50 µM [1, 18] was 0.6 and the fold induction at 50 µM (K. pneumoniae; [19]) was 0.5. The fold induction at 50 µM [2, 20] was 1.1, the fold induction at 50 µM (P. aeruginosa; [21]) was 0.6 and the fold induction at 50 µM (E. cloacae; [22]) was 1.2. The fold induction at 50 µM (E. coli; [23]) was 0.6.
In the case of `CCOC1O[C@H]([C@@H](COCc2ccccc2)OCc2ccccc2)[C@H](OCc2ccccc2)[C@H]1O` (stereo partly drawn) [Tribenoside], the fold induction at 50 µM (E. faecium; [10]) is reported as 1.1, the fold induction at 50 µM [1, 11] is reported as 0.6 and the fold induction at 50 µM (K. pneumoniae; [12]) is reported as 0.9. For the same molecule, the fold induction at 50 µM [2, 13] was 1.7, the fold induction at 50 µM (P. aeruginosa; [14]) was 1.1 and the fold induction at 50 µM (E. cloacae; [15]) was 1.5. It also gave a fold induction at 50 µM (E. coli; [16]) of 0.9.
